Results published in PubChem BioAssay (NCI).
Values joined by “and” are separate entries in the source; they are usually repeats but may differ in a detail not shown here. Equal entries are not always repeated.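 Where inhibition never reached the appropriate level, the endpoint shown equals the highest concentration tested. Otherwise, values were interpolated linearly from a five-concentration, 48-hour dose response in 96-well plates. GI50 marks 50% less growth. TGI denotes the concentration required for complete inhibition of growth.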

Tests used:
Assay in all cases: inhibition of tumour cell growth, NCI panel, 48 h
EKVX NSCLC = system: EKVX NSCLC
MALME-3M melanoma = system: MALME-3M melanoma
RPMI-8226 leukemia = system: RPMI-8226 leukemia
MCF7 breast = system: MCF7 breast
LOX IMVI melanoma = system: LOX IMVI melanoma
TK-10 renal = system: TK-10 renal
PC-3 prostate = system: PC-3 prostate
UACC-62 melanoma = system: UACC-62 melanoma
UACC-257 melanoma = system: UACC-257 melanoma
SNB-75 CNS = system: SNB-75 CNS

SMILES	GI50 (EKVX NSCLC)	TGI (EKVX NSCLC) [µM]	GI50 (MALME-3M melanoma)	TGI (MALME-3M melanoma)	GI50 (RPMI-8226 leukemia)	TGI (RPMI-8226 leukemia) [µM]	GI50 (MCF7 breast)	TGI (MCF7 breast) [µM]	GI50 (LOX IMVI melanoma)	TGI (LOX IMVI melanoma)	GI50 (TK-10 renal)	TGI (TK-10 renal)	GI50 (PC-3 prostate)	TGI (PC-3 prostate) [µM]	GI50 (UACC-62 melanoma)	TGI (UACC-62 melanoma) [µM]	GI50 (UACC-257 melanoma)	TGI (UACC-257 melanoma)	GI50 (SNB-75 CNS)	TGI (SNB-75 CNS)
Oc1ccc(Cl)cc1/C=N\NC(=S)N/N=C/c1cc(Cl)ccc1O	3.23 µM	> 100	2.14 µM	52.7 µM	3.45 µM	34.9	3.82 µM	> 100	1.65 µM	> 100 µM	2.68 µM	34.5 µM	3.13 µM	> 100	1.74 µM	7.57	2.13 µM	7.49 µM	6.35 µM	> 100 µM
COc1cc2c(cc1OCCCOc1ccc(-c3nc4ccc(N5CCN(C)CC5)cc4[nH]3)cc1)N=C[C@@H]1CCCN1C2=O	< 0.01 µM	< 0.01	< 0.01 µM	< 0.01 µM	< 0.01 µM	< 0.01	< 0.01 µM	5.12	< 0.01 µM	1.58 µM	< 0.01 µM	0.492 µM	< 0.01 µM	< 0.01	< 0.0133 µM	< 0.0201			< 0.01 µM	11.8 µM
Cn1cc(NC(=O)Nc2cc(C(=O)Nc3cc(C(=O)Nc4cc(S(=O)(=O)O)c5cc(S(=O)(=O)O)cc(S(=O)(=O)O)c5c4)n(C)c3)n(C)c2)cc1C(=O)Nc1cc(C(=O)Nc2cc(S(=O)(=O)O)c3cc(S(=O)(=O)O)cc(S(=O)(=O)O)c3c2)n(C)c1		> 100		> 100 µM		> 100		> 100				> 100 µM		> 100		> 100		> 100 µM		> 100 µM
CNC(c1ccncc1)C(NC)c1ccncc1 (stereo not drawn)		> 100		> 100 µM		> 100		> 100		> 100 µM		> 100 µM		> 100		> 100		> 100 µM		> 100 µM
CCCCCCCCCCSC(=N)N	10.3 µM	25.3	2.32 µM	6.59 µM	1.73 µM	4.19	2.19 µM	6.03	2.76 µM	9.37 µM	1.61 µM	4.09 µM	4.76 µM	17.5	1.98 µM	4.45	2.51 µM	6.32 µM	1.79 µM	4.44 µM
Cn1cc(-c2nc(N[C@@H]3CCCC[C@@H]3N)c(F)c3c2C(=O)NC3)cn1	14.3 µM and 20.1 µM	> 100	11 µM and 9.57 µM	35.2 µM and 50.5 µM	26.2 µM and 29.1 µM	> 100	5.81 µM and 6.21 µM	> 100	2.95 µM and 3.81 µM	14.1 µM and 16.2 µM	4.5 µM and 6.16 µM	25.3 µM and 40.6 µM	9.43 µM and 13.3 µM	> 100	10.4 µM and 13.1 µM	> 100	19.4 µM and 23.9 µM	98.6 µM and > 88.5 µM	2.14 µM and 2.87 µM	11.7 µM and 16.5 µM
O=C(/C=C/c1ccco1)c1ccc(Nc2nc(Nc3ccc(F)cc3)nc(Nc3ccc(F)cc3)n2)cc1	54.3 µM	> 100	43.7 µM	> 100 µM	8.99 µM	> 100	3.74 µM	25.9	17.6 µM	45.3 µM	48.4 µM	> 100 µM	6.83 µM	21.9	> 100 µM	> 100	> 100 µM	> 100 µM	30.7 µM	91.7 µM
Cc1ccc(S(=O)(=O)NC(CO)C(=O)O)cc1 (stereo not drawn)		> 100		> 100 µM		> 100		> 100		> 100 µM		> 100 µM		> 100		> 100		> 100 µM		> 100 µM
Cc1c(Cl)c(C)c(Cc2c(C)c(Cl)c(C)c(Cl)c2O)c(O)c1Cl	2.64 µM	9.25	2.33 µM	5.97 µM	1.18 µM	6.66	2.14 µM	8.37	3.18 µM	10.5 µM	3.79 µM	17.2 µM	1.99 µM	11.8	1.81 µM	6.84	3.52 µM	14.9 µM	2.27 µM	7.93 µM
O=C(C=C=Nc1ccccc1)C(=O)N=C=Cc1ccccc1	6.81 µM	22.8	1.54 µM	5.33 µM	0.534 µM	2.29	2.35 µM	12.6	1.93 µM	4.48 µM	2.52 µM	6.83 µM	2.89 µM	8.91	4.26 µM	12.6	2.38 µM	5.56 µM	3.54 µM	18.5 µM
O=C(/C=C/c1cccc2ccccc12)Nc1ncc(Cc2ccccc2)s1	1.12 µM	> 100	0.627 µM	> 100 µM	1.09 µM	> 100	0.434 µM	> 100	0.445 µM	11 µM	1.69 µM	4.87 µM	1.01 µM	> 100	0.437 µM	> 100	4.97 µM	> 100 µM	0.344 µM	1.55 µM
COc1cc(-c2cc(=O)c3c(O)c(OC)c(OC)c(OC)c3o2)cc(OC)c1OC		> 100		> 100 µM		> 100		> 100		> 100 µM		> 57.6 µM		> 100		> 100		> 100 µM		6.2 µM
NC(=O)c1ccc(N(C(N)=O)c2c(F)cccc2F)nc1-c1ccc(F)cc1F			> 100 µM	> 100 µM	> 100 µM	> 100	> 100 µM	> 100	> 100 µM	> 100 µM	> 100 µM	> 100 µM	> 100 µM	> 100	> 100 µM	> 100	> 100 µM	> 100 µM	> 100 µM	> 100 µM
Nc1c(C(=O)Nc2cccc3ccccc23)sc2nc3c(cc12)C(=O)CCC3			0.841 µM	54.7 µM	0.366 µM	> 38.2	0.206 µM	> 100	0.554 µM	> 100 µM	12.9 µM	> 100 µM	0.295 µM	> 48.5	0.166 µM	> 75.8	0.183 µM	> 65.8 µM	0.145 µM	12.2 µM
